Measured values published in ChEMBL document CHEMBL1201862, “PubChem BioAssay data set” (2004).
Activity calls are given as the source filed them.

Key:
[1] = target: G-protein coupled receptor 183 (Homo sapiens, UniProt P32249); experiment: SAR confirmation of small molecule antagonists of the EBI2 receptor via a luminescent beta-arrestin assa.; format: functional
[2] = Late stage results for the probe development effort to identify inhibitors of Plasmodium falciparum gametocytes: Luminescence-based cell-based high throughput dose response assay to identify inhibitors of viability of late stage Plasmodium falciparum gametocytes.; format: functional
[3] = cytotoxicity in COV434 cells, dose response, cytotoxicity control for PAX8 inhibitor project, cell-based, plate reader, dry powder, SA7 (AID 743145); format: functional
[4] = NIH:OVCAR-3 ovarian cancer cell cytotoxicity, dose response, PAX8 inhibitor project, plate reader, dry powder samples (AID 743044); format: functional, cell-based
[5] = IGROV1 ovarian cancer cell cytotoxicity, dose response, PAX8 inhibitor project, plate reader, dry powder samples (AID 743043); format: functional, cell-based; conditions: IGROV-1
[6] = target: T1, Long-chain-fatty-acid--AMP ligase FadD28 (Mycobacterium tuberculosis, UniProt P9WQ59); experiment: Fluorescence polarization aasay to screen for inhibitors that compete for the binding of FadD28 to a bisubstrate Measured in Biochemical System Using Plate Reader - 2147-01_Inhibitor_Dose_CherryPick_Activity.; format: functional, Mycobacterium tuberculosis H37Rv
T1 sequence (P9WQ59 whole entry): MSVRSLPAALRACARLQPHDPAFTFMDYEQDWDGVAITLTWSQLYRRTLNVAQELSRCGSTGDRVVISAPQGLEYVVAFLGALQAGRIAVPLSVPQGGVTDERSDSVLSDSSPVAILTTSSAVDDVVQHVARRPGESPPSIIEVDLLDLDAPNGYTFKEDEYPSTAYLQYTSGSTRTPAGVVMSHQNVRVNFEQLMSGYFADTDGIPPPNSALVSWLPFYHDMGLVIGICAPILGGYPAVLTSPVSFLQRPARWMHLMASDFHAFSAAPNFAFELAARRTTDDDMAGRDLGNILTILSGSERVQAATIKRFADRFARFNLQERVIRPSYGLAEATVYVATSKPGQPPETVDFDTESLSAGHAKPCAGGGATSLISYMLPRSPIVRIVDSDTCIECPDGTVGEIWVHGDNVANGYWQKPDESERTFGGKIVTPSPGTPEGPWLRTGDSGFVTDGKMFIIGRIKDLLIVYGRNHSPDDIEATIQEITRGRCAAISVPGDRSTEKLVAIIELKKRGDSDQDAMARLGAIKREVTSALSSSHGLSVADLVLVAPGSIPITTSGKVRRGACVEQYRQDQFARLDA

Vero = Vero cell cytotoxicity, cytotoxicity control for flavivirus capping enzyme inhibitors (AID 588742); format: functional; conditions: Chlorocebus sabaeus
Paired box protein Pax-8 = Paired box protein Pax-8 (Homo sapiens, UniProt Q06710); experiment: inhibitors of PAX8-driven TPO luciferase reporter, dose response, RMG-I cells, cherry-pick (AID 687027); format: functional, cell-based;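 also: luciferase reporter driven by Pax8 target thyroperoxidase promoter measured by SteadyGlo luminescence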
[7] = cytotoxicity in OV-90 ovarian cancer cells, dose response, PAX8 inhibitor project, cell-based, plate reader, dry powder, SA8 (AID 743149); format: functional
[8] = THP-1 cell cytotoxicity, dose response, cytotoxicity control for Vif-APOBEC3G degradation inhibitor project, THP-1 cells (AID 1117359); format: functional; conditions: Human immunodeficiency virus 1, THP-1
[9] = Luminescence Cell-Based Dose Response HTS to Identify Activators of Luciferase Translation or Activity in H4 […] Cells. [Related pubchem assays: 1829 (Project Summary), 1814 (Primary HTS)]; format: functional
Genome polyprotein = Genome polyprotein (dengue virus type 2, UniProt P29990); experiment: Dengue-2 NS5 methyltransferase inhibitors, primary screen, biochemical, confirmation dose response (AID 588689); format: functional
[10] = IOSE-T80 ovarian epithelial cell cytotoxicity, dose response, cytotoxicity control for PAX8 inhibitor project, plate reader, dry powder samples (AID 743045); format: functional, cell-based
H4 = experiment: Luminescence Cell-Based Dose Response HTS to Identify Activators of 5'UTR Stem-Loop Driven Prion Protein mRNA Translation in H4 Neuroglioblastoma Cells. [Related pubchem assays: 1829 (Project Summary), 1814 (Primary HTS)]; format: functional; conditions: Homo sapiens
Protein RecA = target: T2, Protein RecA (Mycobacterium tuberculosis, UniProt P9WHJ3); experiment: Fluorescence Cell-Free Homogeneous Dose Retest to Identify Inhibitors of RecA-Intein Splicing Activity. [Related pubchem assays (depositor defined):AID2097, AID2223, AID489010, AID492950]; format: functional
T2 sequence (P9WHJ3 whole entry): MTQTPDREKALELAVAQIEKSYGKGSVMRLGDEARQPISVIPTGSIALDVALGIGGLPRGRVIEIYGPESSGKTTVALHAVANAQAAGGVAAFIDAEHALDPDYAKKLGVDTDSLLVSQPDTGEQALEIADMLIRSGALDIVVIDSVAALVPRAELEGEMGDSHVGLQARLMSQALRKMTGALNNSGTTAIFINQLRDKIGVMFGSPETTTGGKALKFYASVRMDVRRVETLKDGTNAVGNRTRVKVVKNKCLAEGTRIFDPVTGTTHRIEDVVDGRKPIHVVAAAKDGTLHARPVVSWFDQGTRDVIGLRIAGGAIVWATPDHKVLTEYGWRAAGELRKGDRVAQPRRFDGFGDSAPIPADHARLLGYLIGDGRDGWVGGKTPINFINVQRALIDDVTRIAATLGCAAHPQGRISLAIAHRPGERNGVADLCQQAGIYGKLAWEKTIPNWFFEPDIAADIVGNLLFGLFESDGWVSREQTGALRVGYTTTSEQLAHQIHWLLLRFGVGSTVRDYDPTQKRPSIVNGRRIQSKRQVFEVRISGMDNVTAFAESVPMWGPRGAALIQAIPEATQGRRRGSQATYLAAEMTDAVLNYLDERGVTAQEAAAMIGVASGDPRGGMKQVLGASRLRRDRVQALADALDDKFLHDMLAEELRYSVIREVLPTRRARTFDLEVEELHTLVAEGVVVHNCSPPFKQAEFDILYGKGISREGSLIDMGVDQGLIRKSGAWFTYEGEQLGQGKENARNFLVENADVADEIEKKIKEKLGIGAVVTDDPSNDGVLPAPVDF

[11] = target: T3, Replicative DNA helicase DnaB (Mycobacterium tuberculosis, UniProt P9WMR3); experiment: DnaB intein splicing inhibitors, dose response, biochemical, cell-free fluorescence (AID 449749); format: functional
T3 sequence (P9WMR3 whole entry): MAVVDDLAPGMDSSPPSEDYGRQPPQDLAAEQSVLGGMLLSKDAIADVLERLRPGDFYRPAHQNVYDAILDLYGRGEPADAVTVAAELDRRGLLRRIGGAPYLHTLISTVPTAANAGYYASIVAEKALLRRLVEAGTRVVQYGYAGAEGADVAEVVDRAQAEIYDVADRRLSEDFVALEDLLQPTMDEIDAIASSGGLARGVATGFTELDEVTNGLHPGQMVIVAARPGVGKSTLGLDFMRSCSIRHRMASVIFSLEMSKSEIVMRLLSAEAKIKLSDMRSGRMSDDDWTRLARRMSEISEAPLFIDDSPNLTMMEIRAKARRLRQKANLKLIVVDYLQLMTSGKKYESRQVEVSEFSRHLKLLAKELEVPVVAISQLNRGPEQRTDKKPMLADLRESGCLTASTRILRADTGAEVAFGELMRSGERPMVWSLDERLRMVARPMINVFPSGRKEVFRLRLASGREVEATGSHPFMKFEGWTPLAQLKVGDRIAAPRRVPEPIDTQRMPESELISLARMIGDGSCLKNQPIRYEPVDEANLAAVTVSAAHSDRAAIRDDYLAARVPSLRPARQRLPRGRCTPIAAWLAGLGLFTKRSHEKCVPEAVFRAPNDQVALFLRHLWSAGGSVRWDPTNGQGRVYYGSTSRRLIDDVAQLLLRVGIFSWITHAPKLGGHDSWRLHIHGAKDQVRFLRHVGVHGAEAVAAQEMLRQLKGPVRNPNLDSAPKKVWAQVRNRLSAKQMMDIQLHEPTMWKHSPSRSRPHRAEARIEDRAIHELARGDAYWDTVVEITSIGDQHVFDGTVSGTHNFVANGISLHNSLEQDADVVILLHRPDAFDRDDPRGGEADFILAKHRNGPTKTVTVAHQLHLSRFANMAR

[12] = cytotoxicity in COV362 ovarian cancer cells, dose response, cytotoxicity control for PAX8 inhibitor project, cell-based, plate reader, dry powder, SA12 (AID 743144); format: functional
[13] = PAX2 cell-based inhibition, dose response, selectivity assay for PAX8 inhibitor project, plate reader, dry powder samples (AID 743048); format: functional;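 also: HEK293 cells carrying a WT1 promoter luciferase reporter driven by expressed Pax2; potency is for inhibition of Pax2 driven reporter signal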
[14] = cytotoxicity dependent on PAX8, dose response, cell-based, plate reader, dry powder (AID 743049); format: functional
[15] = cytotoxicity in OVCAR4 cells, dose response, cytotoxicity control for PAX8 inhibitor project, cell-based, plate reader, dry powder, SA11 (AID 743150); format: functional; conditions: OVCAR-4
[16] = A2780 ovarian cancer cell cytotoxicity, dose response, cytotoxicity control, plate reader, dry powder samples (AID 743046); format: functional, cell-based
[17] = PAX5 activity inhibitors, dose response, selectivity assay for PAX8 inhibitor project, cell-based, plate reader, dry powder samples (AID 743047); format: functional;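 also: HEK293 cells carrying a Pax5 driven CD19 promoter luciferase reporter; potency of inhibitors that lower reporter luminescence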

Sequence of G-protein coupled receptor 183 (P32249 whole entry): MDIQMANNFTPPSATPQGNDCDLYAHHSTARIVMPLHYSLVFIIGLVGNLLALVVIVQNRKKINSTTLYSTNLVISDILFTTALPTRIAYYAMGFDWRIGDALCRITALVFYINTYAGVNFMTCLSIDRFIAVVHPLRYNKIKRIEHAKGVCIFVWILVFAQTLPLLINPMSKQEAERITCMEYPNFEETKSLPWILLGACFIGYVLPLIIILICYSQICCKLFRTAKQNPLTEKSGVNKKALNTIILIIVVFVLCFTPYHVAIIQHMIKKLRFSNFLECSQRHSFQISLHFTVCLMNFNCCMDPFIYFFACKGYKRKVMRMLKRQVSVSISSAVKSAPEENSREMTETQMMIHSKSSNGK
Sequence of Paired box protein Pax-8 (Q06710 whole entry): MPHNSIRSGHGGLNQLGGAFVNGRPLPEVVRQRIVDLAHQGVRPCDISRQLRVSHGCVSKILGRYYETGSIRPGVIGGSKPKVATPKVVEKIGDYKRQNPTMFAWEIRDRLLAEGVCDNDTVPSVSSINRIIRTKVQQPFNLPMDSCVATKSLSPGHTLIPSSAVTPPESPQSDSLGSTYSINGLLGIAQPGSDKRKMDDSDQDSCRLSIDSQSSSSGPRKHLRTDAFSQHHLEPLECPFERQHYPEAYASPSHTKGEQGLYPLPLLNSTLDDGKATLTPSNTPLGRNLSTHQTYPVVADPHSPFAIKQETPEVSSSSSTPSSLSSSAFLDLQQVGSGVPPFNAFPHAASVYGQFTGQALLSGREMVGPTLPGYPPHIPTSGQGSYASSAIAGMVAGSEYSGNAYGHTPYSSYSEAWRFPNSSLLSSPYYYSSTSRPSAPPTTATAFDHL
Sequence of Genome polyprotein (P29990 2492-3391 limits assumed): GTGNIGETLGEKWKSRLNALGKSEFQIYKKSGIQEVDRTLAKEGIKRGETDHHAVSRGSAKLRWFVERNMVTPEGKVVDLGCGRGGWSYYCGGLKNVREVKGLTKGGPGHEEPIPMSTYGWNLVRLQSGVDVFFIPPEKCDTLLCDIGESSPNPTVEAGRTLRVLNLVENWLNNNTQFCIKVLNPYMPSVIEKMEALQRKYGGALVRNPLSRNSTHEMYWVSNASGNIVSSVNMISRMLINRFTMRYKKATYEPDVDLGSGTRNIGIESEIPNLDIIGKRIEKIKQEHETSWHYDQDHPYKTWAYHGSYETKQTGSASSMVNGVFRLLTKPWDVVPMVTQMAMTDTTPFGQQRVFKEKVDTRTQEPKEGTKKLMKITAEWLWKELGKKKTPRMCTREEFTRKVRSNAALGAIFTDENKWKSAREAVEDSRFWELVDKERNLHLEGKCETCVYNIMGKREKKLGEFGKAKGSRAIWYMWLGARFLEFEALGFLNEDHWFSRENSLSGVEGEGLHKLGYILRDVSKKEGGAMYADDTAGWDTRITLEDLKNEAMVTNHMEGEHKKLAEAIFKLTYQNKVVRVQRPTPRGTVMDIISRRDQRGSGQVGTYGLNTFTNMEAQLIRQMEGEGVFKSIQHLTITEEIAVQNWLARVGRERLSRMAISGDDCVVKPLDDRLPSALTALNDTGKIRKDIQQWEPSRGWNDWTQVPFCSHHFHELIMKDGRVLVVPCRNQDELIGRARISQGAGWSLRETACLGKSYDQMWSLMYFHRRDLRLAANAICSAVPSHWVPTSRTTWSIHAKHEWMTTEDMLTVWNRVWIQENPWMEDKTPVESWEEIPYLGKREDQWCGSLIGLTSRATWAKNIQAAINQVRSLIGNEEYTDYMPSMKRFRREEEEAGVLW

With `CC(C)c1ccc(CN2CCN(C(=O)/C=C/c3ccc(Br)cc3)CC2)cc1` the IC50 [1] was 0.00592 µM (active).

For `O=C(Nc1nccs1)c1cn(-c2ccccc2)nc1-c1ccc(F)cc1`, the IC50 [2] was > 74.4 µM (inactive).

In the case of `O=C(O)CCCN1C(=O)/C(=C\C(Cl)=C\c2ccccc2)SC1=S`, the AC50 [3] was 27.9 µM (active), the AC50 [4] was 10.2 µM (active) and the AC50 [5] was 9.43 µM (active). The AC50 [6] was 29.7 µM (active), the CC50 (Vero) was 3.6 µM (active) and the AC50 (Paired box protein Pax-8) was 2.03 µM (active). The AC50 [7] was 18.4 µM (active), the CC50 [8] was 6.87 µM (active) and the EC50 [9] was > 120 µM (not active). The IC50 (Genome polyprotein) was 36.2 µM (active), the AC50 [10] was 22.9 µM (active) and the EC50 (H4) was > 120 µM (not active). The EC50 (Protein RecA) was 16.3 µM (active), the AC50 [11] was 9.77 µM (active) and the AC50 [12] was 16 µM (active). The AC50 [13] was 17.8 µM (active), the AC50 [14] was 16 µM (active) and the AC50 [15] was 31.8 µM (active). The AC50 [16] was 66.9 µM (active) and the AC50 [17] was 13.2 µM (active).
